Measured values: ChEMBL document CHEMBL3885881, “DrugMatrix”

Species: Rattus norvegicus
Assay: DrugMatrix - Regimen: Daily Repeat
Type: toxicity, organism-based, Sprague-Dawley
Parameters: regimen Daily Repeat, gender Male, age 6-8 weeks
Conditions: in vivo, po, route oral GAVAGE, […]; for ABSOLUTE BASOPHIL / ABSOLUTE EOSINOPHIL / ABSOLUTE LYMPHOCYTE / ABSOLUTE MONOCYTE / ABSOLUTE SEGMENTED NEUTROPHIL / BASOPHIL / EOSINOPHIL / ERYTHROCYTE COUNT / HEMATOCRIT / HEMOGLOBIN / LEUKOCYTE COUNT / LYMPHOCYTE / MEAN CORPUSCULAR HEMOGLOBIN / MEAN CORPUSCULAR HEMOGLOBIN CONCENTRATION / MEAN CORPUSCULAR VOLUME / MONOCYTE / NEUTROPHIL / NUCLEATED RED BLOOD CELLS / PLATELET COUNT: tissue Blood; for ALANINE AMINOTRANSFERASE / ALBUMIN / ALKALINE PHOSPHATASE / ASPARTATE AMINOTRANSFERASE / BLOOD UREA NITROGEN / CARBON DIOXIDE / CHLORIDE / CHOLESTEROL / CREATINE PHOSPHOKINASE / CREATININE / GLUCOSE / LACTATE DEHYDROGENASE / LIPASE / PHOSPHORUS / POTASSIUM / SODIUM / TOTAL BILIRUBIN / TOTAL PROTEIN / URIC ACID: tissue Plasma
[1] = 0 mg/kg, 72 h, dose level Control, time 3 day
[2] = 0 mg/kg, 120 h, dose level Control, time 5 day
[3] = 25 mg/kg, 72 h, dose level Low, time 3 day

CC(C)(C)NC(=O)[C@H]1CC[C@H]2[C@@H]3CC[C@H]4NC(=O)C=C[C@]4(C)[C@H]3CC[C@]12C [FINASTERIDE]
ABSOLUTE BASOPHIL [1]: 0 CELLS/uL
ABSOLUTE EOSINOPHIL [1]: 52.33 CELLS/uL
ABSOLUTE LYMPHOCYTE [1]: 9105.33 CELLS/uL
ABSOLUTE MONOCYTE [1]: 155.67 CELLS/uL
ABSOLUTE SEGMENTED NEUTROPHIL [1]: 1020 CELLS/uL
BASOPHIL [1]: 0%
EOSINOPHIL [1]: 0.33%
ERYTHROCYTE COUNT [1]: 5.03 x10E6/uL
HEMATOCRIT [1]: 31.63%
HEMOGLOBIN [1]: 12.37 G/DL
LEUKOCYTE COUNT [1]: 10.33 x10E3/uL
LYMPHOCYTE [1]: 87%
MEAN CORPUSCULAR HEMOGLOBIN [1]: 24.57 pg
MEAN CORPUSCULAR HEMOGLOBIN CONCENTRATION [1]: 39.07 G/DL
MEAN CORPUSCULAR VOLUME [1]: 62.93 fL
MONOCYTE [1]: 1.33%
NEUTROPHIL [1]: 11.33%
NUCLEATED RED BLOOD CELLS [1]: 0 /100WBC
PLATELET COUNT [1]: 896 x10E3/uL
ALANINE AMINOTRANSFERASE [1]: 75.33 u/L
ALBUMIN [1]: 3.77 G/DL
ALKALINE PHOSPHATASE [1]: 378.67 u/L
ASPARTATE AMINOTRANSFERASE [1]: 101.33 u/L
BLOOD UREA NITROGEN [1]: 11.33 mg/dL
CARBON DIOXIDE [1]: 25 mmol/L
CHLORIDE [1]: 99 MEQ/L
CHOLESTEROL [1]: 66 mg/dL
CREATINE PHOSPHOKINASE [1]: 277 u/L
CREATININE [1]: 0.33 mg/dL
GLUCOSE [1]: 198.33 mg/dL
LACTATE DEHYDROGENASE [1]: 140.33 u/L
LIPASE [1]: 11.33 u/L
PHOSPHORUS [1]: 11.83 mg/dL
POTASSIUM [1]: 5.37 MEQ/L
SODIUM [1]: 141.03 MEQ/L
TOTAL BILIRUBIN [1]: 0.2 mg/dL
TOTAL PROTEIN [1]: 5.47 G/DL
URIC ACID [1]: 0.93 mg/dL
ABSOLUTE BASOPHIL [2]: 0 CELLS/uL
ABSOLUTE EOSINOPHIL [2]: 0 CELLS/uL
ABSOLUTE LYMPHOCYTE [2]: 8734 CELLS/uL
ABSOLUTE MONOCYTE [2]: 98.67 CELLS/uL
ABSOLUTE SEGMENTED NEUTROPHIL [2]: 1034 CELLS/uL
BASOPHIL [2]: 0%
EOSINOPHIL [2]: 0%
ERYTHROCYTE COUNT [2]: 5.19 x10E6/uL
HEMATOCRIT [2]: 33.2%
HEMOGLOBIN [2]: 12.93 G/DL
LEUKOCYTE COUNT [2]: 9.87 x10E3/uL
LYMPHOCYTE [2]: 87%
MEAN CORPUSCULAR HEMOGLOBIN [2]: 25 pg
MEAN CORPUSCULAR HEMOGLOBIN CONCENTRATION [2]: 39.03 G/DL
MEAN CORPUSCULAR VOLUME [2]: 63.93 fL
MONOCYTE [2]: 1%
NEUTROPHIL [2]: 12%
NUCLEATED RED BLOOD CELLS [2]: 0 /100WBC
PLATELET COUNT [2]: 1190 x10E3/uL
ALANINE AMINOTRANSFERASE [2]: 75.67 u/L
ALBUMIN [2]: 4 G/DL
ALKALINE PHOSPHATASE [2]: 384.33 u/L
ASPARTATE AMINOTRANSFERASE [2]: 89.67 u/L
BLOOD UREA NITROGEN [2]: 13 mg/dL
CARBON DIOXIDE [2]: 32.67 mmol/L
CHLORIDE [2]: 103 MEQ/L
CHOLESTEROL [2]: 79.67 mg/dL
CREATINE PHOSPHOKINASE [2]: 199.33 u/L
CREATININE [2]: 0.29 mg/dL
GLUCOSE [2]: 161.33 mg/dL
LACTATE DEHYDROGENASE [2]: 92.33 u/L
LIPASE [2]: 11.67 u/L
PHOSPHORUS [2]: 10.8 mg/dL
POTASSIUM [2]: 5.38 MEQ/L
SODIUM [2]: 145.3 MEQ/L
TOTAL BILIRUBIN [2]: 0.17 mg/dL
TOTAL PROTEIN [2]: 5.7 G/DL
URIC ACID [2]: 0.63 mg/dL
ABSOLUTE BASOPHIL [3]: 0 CELLS/uL
ABSOLUTE EOSINOPHIL [3]: 0 CELLS/uL
ABSOLUTE LYMPHOCYTE [3]: 6334 CELLS/uL
ABSOLUTE MONOCYTE [3]: 74.67 CELLS/uL
ABSOLUTE SEGMENTED NEUTROPHIL [3]: 624.67 CELLS/uL
BASOPHIL [3]: 0%
EOSINOPHIL [3]: 0%
ERYTHROCYTE COUNT [3]: 5.31 x10E6/uL
HEMATOCRIT [3]: 33.17%
HEMOGLOBIN [3]: 12.87 G/DL
LEUKOCYTE COUNT [3]: 7.03 x10E3/uL
LYMPHOCYTE [3]: 89.67%
MEAN CORPUSCULAR HEMOGLOBIN [3]: 24.23 pg
MEAN CORPUSCULAR HEMOGLOBIN CONCENTRATION [3]: 38.8 G/DL
MEAN CORPUSCULAR VOLUME [3]: 62.43 fL
MONOCYTE [3]: 1%
NEUTROPHIL [3]: 9.33%
NUCLEATED RED BLOOD CELLS [3]: 0 /100WBC
PLATELET COUNT [3]: 1308 x10E3/uL
ALANINE AMINOTRANSFERASE [3]: 57.33 u/L
ALBUMIN [3]: 3.9 G/DL
ALKALINE PHOSPHATASE [3]: 360 u/L
ASPARTATE AMINOTRANSFERASE [3]: 80.67 u/L
BLOOD UREA NITROGEN [3]: 11 mg/dL
CARBON DIOXIDE [3]: 26.33 mmol/L
CHLORIDE [3]: 101.33 MEQ/L
CHOLESTEROL [3]: 77 mg/dL
CREATINE PHOSPHOKINASE [3]: 434.67 u/L
CREATININE [3]: 0.12 mg/dL
GLUCOSE [3]: 184.33 mg/dL
LACTATE DEHYDROGENASE [3]: 112 u/L
LIPASE [3]: 10.67 u/L
PHOSPHORUS [3]: 12.1 mg/dL
POTASSIUM [3]: 4.86 MEQ/L
SODIUM [3]: 144.9 MEQ/L
TOTAL BILIRUBIN [3]: 0.2 mg/dL
TOTAL PROTEIN [3]: 5.83 G/DL
URIC ACID [3]: 0.87 mg/dL
